Assays:
TRP-A1 = TRP-A1 (Homo sapiens, UniProt O75762); test: TRP-A1 activation; format: cell-based
[1] = test system: lips and nasal mucous membranes; test: Cooling effect of suspension applied to lips and nasal mucous membranes; format: in vivo, human
From the text: Sulfadiazine is used as antibiotic for urinary tract infections and its silver salt is also used a topical antibiotic for the treatment of burn wounds. One peripheral antinociceptive compound of this discovery is derived from sulfadiazine as the -ZR″ group, and has the structure illustrated by Formula 3. […] The embodiment, coded as CPS-125, also activated the TRP-M8 coolness receptor, but not TRP-A1. […] Sulfonamides are used as topical and systemic antibiotics. Generally, these drugs are used at doses of 500 mg to gram quantities, and have relatively low toxic side effects except for the risks of renal crystalluria and drug hypersensitivity reactions. […] (St. Louis, Mo.) and coupled to p-menthoyl chloride, using the chemical synthesis described above. Each compound was then tested at 20 mg/ml on the lips and nasal mucous membranes. The compounds were added to sterile saline-10% Tween 80 mixture and stirred using a glass rod until the mixture was a homogeneous suspension. Using a clean glass rod, the suspension was first applied to the lips and nasal vestibule. After this trial, a dropper was used to apply the suspension into the nostrils, at a volume of 0.06 ml in 2 droplets per nostril.

human TRP-M8 receptor = biological target: T1, human TRP-M8 receptor (Homo sapiens, UniProt Q7Z2W7); test: Fura-2 calcium fluorescence in HEK cells permanently transfected with human TRP-M8; format: cell-based; conditions: Fura-2 fluorescence units
T1 construct: expressed in transfected cells; host or cells: human embryonic kidney cells (permanent transfection)
Method: Human embryonic kidney cells were permanently transfected with the gene for the human TRP-M8 receptor. These cells were then incubated with a calcium fluorescence indicator (Fura-2) and incubated at either 29 or 37° C. These cells were then distributed into a 96-well fluorescence-plate image reader with automated drug dilution and computerized software for dose-response analysis. The influx of calcium upon drug stimulated was quantified in fluorescence units.

mouse TRP-M8 receptor = biological target: T2, mouse TRP-M8 receptor (Mus musculus, UniProt Q8R4D5); test: Voltage patch-clamp of HEK cells transiently transfected with mouse TRP-M8; format: cell-based
T2 construct: expressed in transfected cells; host or cells: human embryonic kidney cells (transient transfection)
Method: (§1) Human embryonic kidney cells were transiently transfected with the gene for the mouse TRP-M8 receptor. These cells were then voltage patch-clamped in a standard microscopic apparatus and the test solution electronically applied for 10 sec. The integrated areas of the inward current, measured in picoAmperes were then recorded. Icilin a standard cooling antinociceptive agent was used the positive control. Test substances were applied at 1 μM to at least 4 cells and the current recorded.

TRP-M8 coolness receptor = TRP-M8 coolness receptor (Homo sapiens, UniProt Q7Z2W7); test: TRP-M8 coolness receptor activation (summary statement); format: cell-based
Method: as §1
Human embryonic kidney cells were permanently transfected with the gene for the human TRP-M8 receptor. These cells were then incubated with a calcium fluorescence indicator (Fura-2) and incubated at either 29 or 37° C. These cells were then distributed into a 96-well fluorescence-plate image reader with automated drug dilution and computerized software for dose-response analysis. The influx of calcium upon drug stimulated was quantified in fluorescence units. […] The EC50 of CPS-125 in this test system was 6 μM and for the sulfodimethoxinyl- derivative, it was 60 μM.

T2 sequence (Q8R4D5 whole entry): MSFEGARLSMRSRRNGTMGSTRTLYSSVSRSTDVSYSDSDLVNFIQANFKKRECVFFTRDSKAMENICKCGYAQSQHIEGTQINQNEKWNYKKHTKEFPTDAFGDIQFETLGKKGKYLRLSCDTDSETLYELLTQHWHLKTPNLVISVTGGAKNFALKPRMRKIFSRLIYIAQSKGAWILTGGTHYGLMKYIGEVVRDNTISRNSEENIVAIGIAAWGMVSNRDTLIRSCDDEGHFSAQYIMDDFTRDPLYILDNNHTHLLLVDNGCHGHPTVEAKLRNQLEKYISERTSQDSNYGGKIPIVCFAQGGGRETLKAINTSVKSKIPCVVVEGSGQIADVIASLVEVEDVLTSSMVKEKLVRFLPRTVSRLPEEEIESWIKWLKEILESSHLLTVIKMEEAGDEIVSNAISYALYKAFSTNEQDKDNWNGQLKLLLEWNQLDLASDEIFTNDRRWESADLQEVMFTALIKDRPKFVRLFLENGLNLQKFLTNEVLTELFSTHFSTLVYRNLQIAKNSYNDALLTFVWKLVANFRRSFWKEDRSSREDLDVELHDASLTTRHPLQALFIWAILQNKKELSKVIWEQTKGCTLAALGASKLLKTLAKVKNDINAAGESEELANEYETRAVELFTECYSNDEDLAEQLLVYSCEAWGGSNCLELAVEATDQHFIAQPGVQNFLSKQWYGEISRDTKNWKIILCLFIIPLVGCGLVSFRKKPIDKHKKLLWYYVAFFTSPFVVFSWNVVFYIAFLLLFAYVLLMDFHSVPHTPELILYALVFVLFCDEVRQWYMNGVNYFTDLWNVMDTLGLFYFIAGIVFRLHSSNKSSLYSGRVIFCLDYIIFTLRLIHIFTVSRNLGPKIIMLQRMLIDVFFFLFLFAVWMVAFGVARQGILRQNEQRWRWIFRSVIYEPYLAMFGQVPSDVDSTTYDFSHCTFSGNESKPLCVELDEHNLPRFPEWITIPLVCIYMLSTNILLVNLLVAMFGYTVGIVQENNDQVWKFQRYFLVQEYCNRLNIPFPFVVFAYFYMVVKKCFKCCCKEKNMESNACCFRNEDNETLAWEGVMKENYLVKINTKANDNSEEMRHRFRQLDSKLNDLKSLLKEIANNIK
Sequence of TRP-A1 (O75762 whole entry, species assumed): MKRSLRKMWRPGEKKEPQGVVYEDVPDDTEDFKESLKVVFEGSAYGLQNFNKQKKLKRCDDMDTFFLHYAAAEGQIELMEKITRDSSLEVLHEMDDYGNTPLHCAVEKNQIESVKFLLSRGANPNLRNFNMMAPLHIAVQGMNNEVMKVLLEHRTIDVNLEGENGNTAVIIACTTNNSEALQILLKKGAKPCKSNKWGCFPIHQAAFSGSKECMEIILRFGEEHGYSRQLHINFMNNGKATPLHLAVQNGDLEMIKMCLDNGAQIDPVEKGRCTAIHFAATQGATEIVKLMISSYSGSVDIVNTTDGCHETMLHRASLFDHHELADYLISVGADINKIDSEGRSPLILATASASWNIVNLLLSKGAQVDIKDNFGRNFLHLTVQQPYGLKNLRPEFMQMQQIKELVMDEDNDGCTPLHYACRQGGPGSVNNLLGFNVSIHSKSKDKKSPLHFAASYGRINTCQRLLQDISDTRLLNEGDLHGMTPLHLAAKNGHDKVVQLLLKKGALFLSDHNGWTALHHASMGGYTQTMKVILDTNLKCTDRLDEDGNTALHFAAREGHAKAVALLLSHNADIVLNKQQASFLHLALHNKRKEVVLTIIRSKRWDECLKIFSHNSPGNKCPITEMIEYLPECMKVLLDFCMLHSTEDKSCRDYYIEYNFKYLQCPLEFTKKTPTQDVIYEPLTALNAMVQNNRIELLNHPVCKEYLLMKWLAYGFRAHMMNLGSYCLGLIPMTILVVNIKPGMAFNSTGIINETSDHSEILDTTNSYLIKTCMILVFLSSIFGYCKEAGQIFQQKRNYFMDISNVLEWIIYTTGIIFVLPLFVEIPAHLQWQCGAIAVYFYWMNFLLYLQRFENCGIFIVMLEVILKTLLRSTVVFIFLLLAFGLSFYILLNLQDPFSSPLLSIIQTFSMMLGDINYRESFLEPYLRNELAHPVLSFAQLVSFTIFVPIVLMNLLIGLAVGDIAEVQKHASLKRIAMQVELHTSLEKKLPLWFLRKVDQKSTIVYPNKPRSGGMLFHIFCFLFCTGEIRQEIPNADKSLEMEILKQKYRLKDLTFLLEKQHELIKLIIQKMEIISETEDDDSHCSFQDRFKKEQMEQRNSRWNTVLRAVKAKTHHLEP
T1 sequence (Q7Z2W7 whole entry): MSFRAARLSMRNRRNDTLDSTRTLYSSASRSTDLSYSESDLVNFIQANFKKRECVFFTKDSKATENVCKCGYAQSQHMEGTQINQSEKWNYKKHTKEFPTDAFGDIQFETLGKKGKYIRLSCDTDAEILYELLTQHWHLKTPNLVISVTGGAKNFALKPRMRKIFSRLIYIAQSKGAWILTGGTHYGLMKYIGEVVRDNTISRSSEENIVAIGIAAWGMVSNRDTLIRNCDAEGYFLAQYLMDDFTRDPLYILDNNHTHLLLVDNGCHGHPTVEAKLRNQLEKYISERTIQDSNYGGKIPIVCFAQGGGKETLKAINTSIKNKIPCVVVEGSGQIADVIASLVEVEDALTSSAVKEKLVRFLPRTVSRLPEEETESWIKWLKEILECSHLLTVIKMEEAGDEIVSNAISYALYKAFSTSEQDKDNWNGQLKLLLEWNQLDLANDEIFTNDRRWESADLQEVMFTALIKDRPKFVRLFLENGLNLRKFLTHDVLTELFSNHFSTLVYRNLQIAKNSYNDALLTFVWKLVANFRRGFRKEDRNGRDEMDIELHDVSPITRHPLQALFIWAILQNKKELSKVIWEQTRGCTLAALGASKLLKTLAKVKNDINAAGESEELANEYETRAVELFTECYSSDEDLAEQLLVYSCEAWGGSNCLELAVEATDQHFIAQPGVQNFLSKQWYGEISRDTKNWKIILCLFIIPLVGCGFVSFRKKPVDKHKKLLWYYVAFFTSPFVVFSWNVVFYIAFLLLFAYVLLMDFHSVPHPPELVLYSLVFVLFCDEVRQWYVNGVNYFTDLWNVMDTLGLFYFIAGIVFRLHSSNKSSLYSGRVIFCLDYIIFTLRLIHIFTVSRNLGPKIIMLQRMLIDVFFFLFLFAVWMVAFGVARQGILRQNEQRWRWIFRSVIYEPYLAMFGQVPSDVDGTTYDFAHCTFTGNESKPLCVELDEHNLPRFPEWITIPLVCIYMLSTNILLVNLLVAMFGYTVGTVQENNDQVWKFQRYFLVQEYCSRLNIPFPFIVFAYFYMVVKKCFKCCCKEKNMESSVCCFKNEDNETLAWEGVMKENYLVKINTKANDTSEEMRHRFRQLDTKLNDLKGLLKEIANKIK
Sequence of TRP-M8 coolness receptor (Q7Z2W7 whole entry): as above

With CC1CCC(C(C)C)C(C(=O)Nc2ccc(S(=O)(=O)Nc3ncccn3)cc2)C1 (stereo not shown) [CPS-125, 2-Isopropyl-5-methyl-cyclohexanecarboxylic acid [4-(pyrimidin-2-ylsulfamoyl)-phenyl]-amide] the “activation of TRP-A1” value (TRP-A1) was “not”, the “duration of cooling effect” value ([1]; 1 mg per nostril, 0.06 ml in 2 droplets per nostril) was “up to 3 hr” and the “cooling effect on the lips and on breathing sensation” value ([1]; 20 mg/ml suspension in saline-10% Tween 80, lips and nasal mucous membranes) was “gentle, cooling refreshing effect”. The “ΔFmax (maximum fluorescence increase at the maximum concentration tested)” value (human TRP-M8 receptor) was 14,000 units, the “activity relative to icilin (integrated inward current, icilin as 100)” value (mouse TRP-M8 receptor; 1 μM, applied 10 sec, at least 4 cells) was 41% and the EC50 (mouse TRP-M8 receptor; patch-clamp dose-response, read-out: EC50 for full activation of the receptor) was 2 µM. For the same molecule, the “activation of TRP-M8 coolness receptor” value (TRP-M8 coolness receptor) was “activated”.

Source: patent US7417048B2, “Aryl-substituted derivatives of cycloalkyl and branched chain alkyl carboxylic acids useful as antinociceptive drugs for peripheral targets” (priority 2003, dated 2008)
